# According to ChEMBL document CHEMBL3997813, “Selective inhibition of monoamine oxidase A by purpurin, an anthraquinone” (Bioorg Med Chem Lett, 2017):
# Experiments:
# [1] = target: T1, Amine oxidase [flavin-containing] A (Homo sapiens, UniProt P21397); test: Inhibition of recombinant human MAO-A assessed as residual activity at 5 uM using 0.4 mM of kynuramine as substrate after 10 mins; conditions: read-out: Activity
# T1 sequence (P21397 whole entry): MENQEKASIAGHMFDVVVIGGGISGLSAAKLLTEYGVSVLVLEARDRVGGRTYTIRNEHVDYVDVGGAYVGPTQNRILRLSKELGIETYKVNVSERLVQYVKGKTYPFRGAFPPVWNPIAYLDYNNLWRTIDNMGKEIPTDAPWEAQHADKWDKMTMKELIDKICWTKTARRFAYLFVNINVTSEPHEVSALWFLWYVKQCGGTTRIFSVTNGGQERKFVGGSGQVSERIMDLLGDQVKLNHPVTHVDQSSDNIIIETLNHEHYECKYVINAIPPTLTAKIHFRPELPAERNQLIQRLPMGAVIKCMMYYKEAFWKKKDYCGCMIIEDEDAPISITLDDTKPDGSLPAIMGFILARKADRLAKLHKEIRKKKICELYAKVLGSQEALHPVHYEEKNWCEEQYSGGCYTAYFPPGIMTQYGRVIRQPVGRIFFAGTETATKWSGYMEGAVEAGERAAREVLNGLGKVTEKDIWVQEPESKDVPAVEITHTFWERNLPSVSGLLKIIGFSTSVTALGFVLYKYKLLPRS
# [2] = target: T1, Amine oxidase [flavin-containing] A; test: Inhibition of recombinant human MAO-A using kynuramine as substrate incubated for 10 mins
# [3] = target: T1, Amine oxidase [flavin-containing] A; test: Inhibition of recombinant human MAO-A assessed as residual activity at 5 uM using 0.2 mM kynuramine as substrate incubated for 10 mins; conditions: read-out: Activity
# [4] = target: T2, Amine oxidase [flavin-containing] B (Homo sapiens, UniProt P27338); test: Inhibition of recombinant human MAO-B using benzylamine as substrate preincubated for 15 mins
# T2 sequence (P27338 whole entry): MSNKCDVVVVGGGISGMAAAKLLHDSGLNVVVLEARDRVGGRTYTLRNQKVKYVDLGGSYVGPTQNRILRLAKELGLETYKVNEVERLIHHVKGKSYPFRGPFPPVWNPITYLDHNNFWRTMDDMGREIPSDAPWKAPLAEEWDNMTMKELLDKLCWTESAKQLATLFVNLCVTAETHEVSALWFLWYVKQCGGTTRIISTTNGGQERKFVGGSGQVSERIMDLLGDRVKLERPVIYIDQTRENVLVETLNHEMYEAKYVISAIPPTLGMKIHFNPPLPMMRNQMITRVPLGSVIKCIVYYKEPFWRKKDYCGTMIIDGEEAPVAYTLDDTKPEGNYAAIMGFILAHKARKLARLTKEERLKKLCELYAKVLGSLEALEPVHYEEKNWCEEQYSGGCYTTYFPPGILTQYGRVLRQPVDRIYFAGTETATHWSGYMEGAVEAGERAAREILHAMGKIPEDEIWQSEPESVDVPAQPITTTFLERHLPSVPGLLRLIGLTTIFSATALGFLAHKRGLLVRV
# [5] = target: T1, Amine oxidase [flavin-containing] A; test: Reversible inhibition of recombinant human MAO-A assessed as residual activity at 5 uM preincubated for 10 mins in presence of kynuramine substrate followed by re-addition of 0.2 mM of substrate measured after 10 mins; conditions: read-out: Activity
# [6] = target: T1, Amine oxidase [flavin-containing] A; test: Competitive inhibition of recombinant human MAO-A using 0.01 to 0.5 mM kynuramine substrate by Lineweaver-Burk plot analysis
# [7] = target: T1, Amine oxidase [flavin-containing] A; test: Time-dependent inhibition of recombinant human MAO-A preincubated up to 30 mins followed by addition of 0.2 mM of kynuramine as substrate
# [8] = target: T2, Amine oxidase [flavin-containing] B; test: Inhibition of recombinant human MAO-B using benzylamine as substrate at 40 uM after 15 mins relative to control; conditions: 0.25 h
# [9] = target: T1, Amine oxidase [flavin-containing] A; test: Reversible inhibition of recombinant human MAO-A using kynuramine as substrate assessed as residual activity at 100 times IC50 preincubated for 10 mins followed by 100 times compound dilution
# [10] = target: T1, Amine oxidase [flavin-containing] A; test: Competitive inhibition of recombinant human MAO-A using varying levels of kynuramine substrate after 5 mins by Lineweaver-Burk plot analysis
# [11] = target: T1, Amine oxidase [flavin-containing] A; test: Inhibition of recombinant human liver MAO-A expressed in yeast using kynuramine as substrate preincubated for 3 mins followed by substrate addition by double reciprocal plot analysis
# [12] = target: T1, Amine oxidase [flavin-containing] A; test: Irreversible inhibition of recombinant human MAO-A using kynuramine as substrate assessed as residual activity at 100 times IC50 preincubated for 10 mins followed by 100 times compound dilution
compound,measurement,setting,value
O=C1c2ccccc2C(=O)c2c(O)c(O)cc(O)c21 [PURPURIN],activity at 5 µM,[1],54.4%
same,IC50,[2],2.5 µM
same,activity at 5 µM,[3],36.6%
same,IC50,[4],> 40 µM
same,activity at 5 µM,[5],55.2%
same,Ki,[6],0.422 µM
same,TDI,[7],Active
same,inhibition at 40 µM,[8],23.3%
same,Activity,[9],63.9 to 67.2%
CNc1ccccc1-c1nc(C(=O)OC)cs1,Ki,[10],1.84 µM
Cn1ccc2c3ccccc3nc-2c1,Ki,[11],1.43 µM
O=C1c2ccccc2C(=O)c2c1ccc(O)c2O [ATHRAQUINONES A],IC50,[2],30.1 µM
same,IC50,[4],> 60 µM
C#CCN(C)CCCOc1ccc(Cl)cc1Cl [CLORGILINE],Activity,[12],24.9 to 47.9%
